Tested on: 327498-153-R-J2-PDC complex spheroid growth, % test/control
Experiment: Anticancer human tumor 327498-153-R-J2-PDC patient-derived uterine carcinosarcoma cell line growth inhibition [Asc]
Conditions: for IC50: curve of first compound; for viability, T/C: stronger effect = lower value
Procedure: Multicellular complex tumor spheroid response to apoptosis pathway targeting inhibitors Alrizomadlin, Pelcitoclax, and Dasminapant in combination with a variety of drugs and investigational agents in selected tumor cell lines
The MDM2 inhibitor alrizomadlin, the Bcl-2/Bcl-xL inhibitor pelcitoclax, and the IAPs inhibitor dasminapant were evaluated both individually and in combination with standard of care and investigational anticancer small molecules within a complex spheroid model of solid tumors. . Complex spheroids include a stromal component modeled by human endothelial cells (HUVEC) and fibroblasts modeled by human mesenchymal stem cells (MSCs). The concentration ranges selected for each drug and investigational agent were based upon clinically achievable concentrations if the clinical Cmax of the agent was known.
Compounds. The drugs and investigational agents: alrizomadlin (APG-115; NSC831270), pelcitoclax (APG-1252; NSC835773), dasminapant (APG-1387;NSC834197), TAK-243 (NSC785004), copanlisib (NSC809693), olaparib (NSC753686), talazoparib (NSC767125), cobimetinib (NSC 768068), eltanexor (KPT-8602, NSC 794443), abemaciclib (NSC 768073), sotorasib (NSC818433), adagrasib (NSC 831453), MRTX-1133 (NSC 836407), Iadademestat (ORY1001, NSC 806812), and RMC-4630 (NSC839698), were obtained from the NCI Developmental Therapeutics Program Chemical Repository. The FDA-approved anticancer drug set is available from the Developmental Therapeutics Program at https://dtp.cancer.gov/organization/dscb/obtaining/available plates.htm. […] The stock solutions were prepared in dimethyl sulfoxide (DMSO, Sigma-Aldrich, St. Louis, MO, cat. D2650) at 800-fold the tested concentration and stored at -70 degrees C prior to their use. All drugs and investigational agents were tested over a range starting from a high concentration at or near the clinical Cmax and decreasing in half-log increments. If the clinical Cmax for an agent had not been determined, the highest concentration tested was 10 microM.
The patient-derived cancer (PDC) cell lines include five colon adenocarcinomas: 186277-243-T-J2-PDC, 616215-338-R-J1-PDC, 439559-082-T-J2-PDC, 463943-066-T-J2-PDC, and 519858-162-T-J1-PDC; three pancreatic carcinomas: 323965-272-R-J2-PDC, 521955-158-R6-J3-PDC, and 521955-158-R2-J5-PDC; two uterine sarcomas: 327498-152-R-J2-PDC and 993429-296-R-J1-PDC; two rhabdomyosarcomas: 755483-174-R-J1-PDC and 772245-204-R-J1-PDC; two soft tissue sarcomas: 126254-015-R-J1-PDC and 494315-158-R-J1-PDC; two malignant fibrous histiocytomas: 317291-083-R-J1-PDC and 596521-263-R-J1-PDC; two breast carcinomas: 171881-019-R-J1-PDC and 885512-296-R-J2-PDC; and one ovarian carcinoma: 6556581-035-R-J-PDC were obtained from the NCI PDMR, (https://pdmr.cancer.gov). The established cell lines HSSY-2 synovial sarcoma (RRID:CVCL 8719), SYO-1 synovial sarcoma (RRID:CVCL_7146), MPNST malignant peripheral neural sheath tumor were obtained from the Sloan Kettering Institute. The following established cell lines were purchased from the American Type Culture Collection (ATCC, Manassas, VA), Sor the received from the NCI repository:, PANC-1 pancreatic carcinoma (CRL-1469, RRID:CVCL_0480), OVCAR-5 ovarian carcinoma (RRID:CVCL_1628), OVCAR-8 ovarian carcinoma (RRID:CVCL_1629), , MCF-7 breast carcinoma (CRL-12584, RRID:CVCL_0031), MDA-MB-231 breast carcinoma (CRL-12532, RRID:CVCL_0062), NCI-H1876 small cell lung carcinoma (CRL-5902, RRID:CVCL_1503), NCI-H510A small cell lung carcinoma (HTB-184, RRID:CVCL_1565), NCI-H1417 (CRL-5869, RRID:CVCL_1469), and NCI-H196 small cell lung carcinoma (CRL-5823, RRID:CVCL_1509). Dr. Peter Houghton (Greehey Children's Cancer Research Institute, University of Texas Health Science Center, San Antonio, TX) provided Rh-18 rhabdomyosarcoma (RRID:CVCL_1659). Pooled donor human umbilical vein endothelial cells (HUVEC, Lonza, cat. CC-2519) and human mesenchymal stem cells (hMSC, Lonza, cat. PT-2501) were purchased from Lonza (Walkersville, MD).
Cell Culture. […]

[1] = second compound 0.1 µM, first compound 0.0316 µM
[2] = second compound 0.1 µM, first compound 0.1 µM
[3] = second compound 0.1 µM, first compound 0.316 µM
[4] = second compound 0.1 µM, first compound 1 µM
[5] = second compound 0.316 µM, first compound 0.0316 µM
[6] = second compound 0.316 µM, first compound 0.1 µM
[7] = second compound 0.316 µM, first compound 0.316 µM
[8] = second compound 0.316 µM, first compound 1 µM
[9] = second compound 1 µM, first compound 0.0316 µM
[10] = second compound 1 µM, first compound 0.1 µM
[11] = second compound 1 µM, first compound 0.316 µM
[12] = second compound 1 µM, first compound 1 µM
[13] = second compound 0.1 µM, first compound 0.00316 µM
[14] = second compound 0.1 µM, first compound 0.01 µM
[15] = second compound 0.316 µM, first compound 0.00316 µM
[16] = second compound 0.316 µM, first compound 0.01 µM
[17] = second compound 1 µM, first compound 0.00316 µM
[18] = second compound 1 µM, first compound 0.01 µM
[19] = second compound 3.16 µM, first compound 0.00316 µM
[20] = second compound 3.16 µM, first compound 0.01 µM
[21] = second compound 3.16 µM, first compound 0.0316 µM
[22] = second compound 3.16 µM, first compound 0.1 µM
[23] = second compound 10 µM, first compound 0.00316 µM
[24] = second compound 10 µM, first compound 0.01 µM
[25] = second compound 10 µM, first compound 0.0316 µM
[26] = second compound 10 µM, first compound 0.1 µM
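Note: spheroids exposed to compound for 7 days after 3 days of growth.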
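Throughout, for viability, T/C: 100% = DMSO vehicle control wells.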

For `C#Cc1c(F)ccc2cc(O)cc(-c3ncc4c(N5CC6CCC(C5)N6)nc(OCC56CCCN5CC(F)C6)nc4c3F)c12` (stereo not given) + CNC(C)C(=O)NC1CN(S(=O)(=O)c2cccc(S(=O)(=O)N3CCC4CCC(C(=O)NC(c5ccccc5)c5ccccc5)N4C(=O)C(NC(=O)C(C)NC)C3)c2)CCC2CCC(C(=O)NC(c3ccccc3)c3ccccc3)N2C1=O, the IC50 (second compound 0.01 µM) was over 10000 nM, the IC50 (second compound 0.0316 µM) was over 10000 nM and the IC50 (second compound 0.1 µM) was over 10000 nM. The IC50 (second compound 0.316 µM) was over 10000 nM, the IC50 (second compound 1 µM) was over 10000 nM and the viability, T/C (second compound 0.01 µM, first compound 0.0316 µM) was 102%. It also gave a viability, T/C (second compound 0.01 µM, first compound 0.1 µM) of 97.8%, a viability, T/C (second compound 0.01 µM, first compound 0.316 µM) of 95.8% and a viability, T/C (second compound 0.01 µM, first compound 1 µM) of 88.6%. For the same compound, the viability, T/C (second compound 0.01 µM, first compound 3.16 µM) was 68.8%, the viability, T/C (second compound 0.01 µM, first compound 10 µM) was 53% and the viability, T/C (second compound 0.0316 µM, first compound 0.0316 µM) was 103%. It also gave a viability, T/C (second compound 0.0316 µM, first compound 0.1 µM) of 97.3%, a viability, T/C (second compound 0.0316 µM, first compound 0.316 µM) of 102% and a viability, T/C (second compound 0.0316 µM, first compound 1 µM) of 77%. For the same compound, the viability, T/C (second compound 0.0316 µM, first compound 3.16 µM) was 61.9%, the viability, T/C (second compound 0.0316 µM, first compound 10 µM) was 55.1% and the viability, T/C [1] was 103%. For the same compound, the viability, T/C [2] was 95.4%, the viability, T/C [3] was 97.5% and the viability, T/C [4] was 82.8%. The viability, T/C (second compound 0.1 µM, first compound 3.16 µM) was 69.4%, the viability, T/C (second compound 0.1 µM, first compound 10 µM) was 61.9% and the viability, T/C [5] was 106%. For the same compound, the viability, T/C [6] was 104%, the viability, T/C [7] was 92.4% and the viability, T/C [8] was 82.3%. The viability, T/C (second compound 0.316 µM, first compound 3.16 µM) was 74.5%, the viability, T/C (second compound 0.316 µM, first compound 10 µM) was 55.6% and the viability, T/C [9] was 96.3%. It also gave a viability, T/C [10] of 96.1%, a viability, T/C [11] of 97% and a viability, T/C [12] of 84.9%. For the same compound, the viability, T/C (second compound 1 µM, first compound 3.16 µM) was 74% and the viability, T/C (second compound 1 µM, first compound 10 µM) was 67%.

Work on `COc1c(OCCCN2CCOCC2)ccc2c3n(c(=NC(=O)c4cnc(N)nc4)nc12)CCN3` + Cc1c(S(C)(=O)=O)c(-c2cc(F)cc(N3CCN(c4ccc(NS(=O)(=O)c5ccc(NC(CCN6CCC(C(=O)OCCCP(=O)(O)O)CC6)CSc6ccccc6)c(S(=O)(=O)C(F)(F)F)c5)cc4)CC3)c2)c(-c2ccc(Cl)cc2)n1C(C)C yielded an IC50 (second compound 0.1 µM) of 104 nM, an IC50 (second compound 0.316 µM) of 96.5 nM and an IC50 (second compound 1 µM) of 79.2 nM. It also gave an IC50 (second compound 3.16 µM) of 86.4 nM, an IC50 (second compound 10 µM) of 168 nM and a viability, T/C [13] of 81.3%. It also gave a viability, T/C [14] of 91.2%, a viability, T/C [1] of 80.3% and a viability, T/C [2] of 46.8%. For the same compound, the viability, T/C [3] was 24.6%, the viability, T/C [4] was 5.06% and the viability, T/C [15] was 91.3%. For the same compound, the viability, T/C [16] was 84.4%, the viability, T/C [5] was 77.2% and the viability, T/C [6] was 48.7%. The viability, T/C [7] was 18.9%, the viability, T/C [8] was 4.02% and the viability, T/C [17] was 91.1%. It also gave a viability, T/C [18] of 83.6%, a viability, T/C [9] of 63.9% and a viability, T/C [10] of 48.7%. For the same compound, the viability, T/C [11] was 20.8%, the viability, T/C [12] was 3.26% and the viability, T/C [19] was 91.5%. For the same compound, the viability, T/C [20] was 79.2%, the viability, T/C [21] was 72.2% and the viability, T/C [22] was 48.9%. For the same compound, the viability, T/C (second compound 3.16 µM, first compound 0.316 µM) was 16.1%, the viability, T/C (second compound 3.16 µM, first compound 1 µM) was 2.71% and the viability, T/C [23] was 166%. The viability, T/C [24] was 169%, the viability, T/C [25] was 151% and the viability, T/C [26] was 73%. For the same compound, the viability, T/C (second compound 10 µM, first compound 0.316 µM) was 24% and the viability, T/C (second compound 10 µM, first compound 1 µM) was 4.08%.

`Cn1ncnc1[C@H]1c2n[nH]c(=O)c3cc(F)cc(c23)N[C@@H]1c1ccc(F)cc1` + Cc1c(S(C)(=O)=O)c(-c2cc(F)cc(N3CCN(c4ccc(NS(=O)(=O)c5ccc(NC(CCN6CCC(C(=O)OCCCP(=O)(O)O)CC6)CSc6ccccc6)c(S(=O)(=O)C(F)(F)F)c5)cc4)CC3)c2)c(-c2ccc(Cl)cc2)n1C(C)C gave an IC50 (second compound 0.1 µM) of 10.9 nM, an IC50 (second compound 0.316 µM) of 11.4 nM and an IC50 (second compound 1 µM) of 7.37 nM. The IC50 (second compound 3.16 µM) was 8.06 nM, the IC50 (second compound 10 µM) was 10.3 nM and the viability, T/C (second compound 0.1 µM, first compound 0.000316 µM) was 103%. The viability, T/C (second compound 0.1 µM, first compound 0.001 µM) was 97.1%, the viability, T/C [13] was 89.5% and the viability, T/C [14] was 51.4%. It also gave a viability, T/C [1] of 19.3%, a viability, T/C [2] of 7.05% and a viability, T/C (second compound 0.316 µM, first compound 0.000316 µM) of 92.6%. For the same compound, the viability, T/C (second compound 0.316 µM, first compound 0.001 µM) was 84.5%, the viability, T/C [15] was 86.9% and the viability, T/C [16] was 54%. For the same compound, the viability, T/C [5] was 14.9%, the viability, T/C [6] was 6.5% and the viability, T/C (second compound 1 µM, first compound 0.000316 µM) was 99.3%. For the same compound, the viability, T/C (second compound 1 µM, first compound 0.001 µM) was 104%, the viability, T/C [17] was 81.7% and the viability, T/C [18] was 37.7%. It also gave a viability, T/C [9] of 15.3%, a viability, T/C [10] of 5.39% and a viability, T/C (second compound 3.16 µM, first compound 0.000316 µM) of 92.7%. The viability, T/C (second compound 3.16 µM, first compound 0.001 µM) was 91.6%, the viability, T/C [19] was 80.3% and the viability, T/C [20] was 42.2%. The viability, T/C [21] was 14.9%, the viability, T/C [22] was 4.76% and the viability, T/C (second compound 10 µM, first compound 0.000316 µM) was 174%. The viability, T/C (second compound 10 µM, first compound 0.001 µM) was 178%, the viability, T/C [23] was 150% and the viability, T/C [24] was 50.1%. The viability, T/C [25] was 18.2% and the viability, T/C [26] was 5.74%.
